According to US11952364B2, “TRK inhibitors useful as anticancer drugs” (TYLIGAND BIOSCIENCE (SHANGHAI) LIMITED, priority 2018, dated 2024):
Read-outs that look alike come from different tables or passages of the source. Each block holds one compound with its values, some of them ahead of it.

Test system: Ba/F3 LMNA-NTRK1-G667C cells
Assay: Proliferation of Ba/F3 LMNA-NTRK1-G667C cells (CellTiter-Glo)
Format: cell-based, mouse
Conditions: Mus musculus, read-out: Ba/F3 LMNA-NTRK1-G667C, IC50
Text: Ba/F3 LMNA-NTRK1-G667C is a stable transgenic cell line constructed by KYinno Biotechnology Co., Ltd. on mouse primary B cell Ba/F3 wherein NTRK1 has a mutation of G to Cat position 667 and is highly expressed and fused with LMNA to form LMNA-NTRK1-G667C. • [Test method]: Promega's CellTiter-Glo® Luminescent Cell Viability Assay kit was used to evaluate the inhibitory activity of the compounds on the proliferation of Ba/F3 LMNA-NTRK1-G667C cells. • [Instrument]: Spectramax M3 multifunctional microplate reader from Molecular Devices. • [Test materials]: Ba/F3 LMNA-NTRK1-G667C cell line (constructed by KYinno Co., Ltd. (Beijing)), 96-well transparent flat-bottomed black-walled cell culture plate (Corning, cat #3603), RPMI-1640 media (GE, cat #SH30027.01), fetal bovine serum FBS (Thermo Fisher, cat #10099-141), CellTiter-Glo® Luminescent Cell Viability Assay kit (Promega, cat #G7572), PBS (Solarbio, cat #P1020), DMSO (Sigma, cat #D2650). • [Experimental procedure]: When resuscitating Ba/F3 LMNA-NTRK1-G667C cells, the freezing tube was quickly shaken in a 37° C. water bath to melt within 1 minute. The thawed cell suspension was mixed uniformly with RPMI1640 medium containing 10% FBS, centrifuged at 1000 rpm for 5 minutes, and the supernatant discarded. 5 mL of complete medium (RPMI1640 medium with 10% FBS) was taken to resuspend the cell pellets, charged into a cell culture flask with a bottom area of 25 cm^2, and incubated in a cell incubator at 37° C., 95% humidity and 5% CO2. Cells were allowed to passage when the number of cells reached about 10^6 cells/mL. For cell passage, the old cell suspension was directly pipetted evenly, 1/5 of the cell suspension was kept, 4 mL of new complete medium was added, after pipetting evenly, the cell flask was placed in the cell incubator for further culturing. Cell plating was performed when the number of cells reached about 10^6 cells/mL again. For cell plating, 1/5 of the cell suspension was kept for further culturing as in the cell passage method, and the remaining 4/5 of the cell suspension was placed in a 15 mL centrifuge tube, detected for cell viability by Trypan blue exclusion method to ensure that cell viability was above 90%. A cell suspension with a density of 5.56×10^4 viable cells/mL was prepared with complete medium, and 90 μL of such cell suspension was added to a 96-well cell culture plate to obtain the cell density of 5000 viable cells/mL in the cell culture plate. A control group containing no cells, no compound and only complete medium (i.e. culture medium control) and a control group containing no compound but containing cells (i.e. cell control) were set. The cell plate was placed in a cell incubator overnight. The 10 mM compound stock solution in DMSO was first serially diluted with DMSO at a dilution factor of 3.16 times, to obtain 9 concentrations, and the 10th concentration was set as DMSO control without compound. Then, PBS was used to dilute the DMSO solutions of compounds of different concentrations, at a dilution factor of 100 times, so that the DMSO concentration in the compound solution of each concentration was 1%. Finally, 10 μL of each of the above solutions was added to the corresponding cell culture plate, so that the initial compound concentration was 10 μM, with the remaining concentrations being successively diluted at a dilution factor of 3.16 times, and the DMSO content in the cell culture plate was 0.1%. The cell plate was placed in a cell incubator and cultured for 72 hours. For endpoint detection, the CellTiter-Glo reagent was melted, and the cell plate was moved to room temperature to equilibrate for 30 minutes, added with 100 μL of CellTiter-Glo for each well, and shaken on an orbital shaker for 5 minutes to fully lyse the cells. The plate was kept at room temperature for 20 minutes to stabilize the luminescence signal, and the luminescence value of each well was scanned with a multi-functional microplate reader at full wavelength. • [Test samples] […]

IC50 (BaF3, Table 4-2, separate test): 8.6 nM
Structure (SMILES): CCOc1ccc(C(=O)Nc2ccc(Oc3cc4cnn(C)c4cc3-c3cn[nH]c3)c(F)c2)c(=O)n1-c1ccc(F)cc1 [Example 14, N-(3-fluoro-4-(1-methyl-6-(1H-pyrazol-4-yl)-1H-indazol-5-yloxy)phenyl)-1-(4-fluorophenyl)-6-ethoxy-2-oxo-12-dihydropyridine-3-carboxamide]

IC50 (BaF3, Table 4-1, separate test): 1 nM
Structure (SMILES): CCc1ccc(C(=O)Nc2ccc(Oc3cc4cnn(CC)c4cc3-c3cn[nH]c3)c(F)c2)c(=O)n1-c1ccc(F)cc1 [Example 18, N-(3-fluoro-4-(1-ethyl-6-(1H-pyrazol-4-yl)-1H-indazol-5-yloxy)phenyl)-1-(4-fluorophenyl)-6-ethyl-2-oxo-1,2-dihydropyridine-3-carboxamide]

IC50 (BaF3, 72 h, Table 4, 72 hours): < 1 nM
Structure (SMILES): CCc1ccc(C(=O)Nc2ccc(Oc3cc4cnn(C)c4cc3-c3cn[nH]c3)c(F)c2)c(=O)n1-c1ccc(F)cc1 [Example 5, N-(3-fluoro-4-(1-methyl-6-(1H-pyrazol-4-yl)-1H-indazol-5-yloxy)phenyl)-1-(4-fluorophenyl)-6-ethyl-2-oxo-1,2-dihydropyridine-3-carboxamide]
